Test results as given in patent US6737383B1, “Herbicidal oxadiazolidines” (priority 1999, dated 2004).

Columns and labels:
[1] = test system: rice; experiment: Test B flood test rice; format: in vivo, Oryza sativa
In short: (§1)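 Each value is a visual injury score relative to controls, with 10 meaning complete control and 0 no effect. Evaluation took place twelve to sixteen days after the 2-leaf-stage plants were treated and kept in the greenhouse.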

[2] = test system: corn; experiment: Test B pre/postemergence corn; format: in vivo, Zea mays
In short: (§2)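 Test chemicals in a non-phytotoxic solvent mixture with surfactant were sprayed preemergence onto planted seeds and postemergence onto plants 2 to 18 cm tall (1- to 4-leaf stage). After twelve to sixteen days in a greenhouse, injury was visually rated against untreated controls from 0 (no effect) to 10 (complete control).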

[3] = test system: giant foxtail; experiment: Test B pre/postemergence giant foxtail; format: in vivo, Setaria faberii
In short: as §2

[4] = test system: purple nutsedge; experiment: Test B pre/postemergence purple nutsedge; format: in vivo, Cyperus rotundus
In short: as §2

[5] = test system: pigweed; experiment: Test B pre/postemergence pigweed; format: in vivo, Amaranthus retroflexus
In short: as §2

[6] = test system: soybean; experiment: Test B pre/postemergence soybean; format: in vivo, Glycine max
In short: as §2

[7] = test system: blackgrass; experiment: Test B pre/postemergence blackgrass; format: in vivo, Alopecurus myosuroides
In short: as §2

[8] = test system: sugar beet; experiment: Test B pre/postemergence sugar beet; format: in vivo, Beta vulgaris
In short: as §2

[9] = test system: duck salad; experiment: Test B flood test duck salad; format: in vivo, Heteranthera limosa
In short: as §1

[10] = test system: bamyardgrass; experiment: Test B flood test barnyardgrass; format: in vivo, Echinochloa crus-galli
In short: as §1

[11] = test system: surinam grass; experiment: Test B pre/postemergence surinam grass; format: in vivo, Brachiaria decumbens
In short: as §2

[12] = test system: smallflower flatsedge; experiment: Test B flood test smallflower flatsedge; format: in vivo, Cyperus difformis
In short: as §1

[13] = test system: velvetleaf; experiment: Test B pre/postemergence velvetleaf; format: in vivo, Abutilon theophrasti
In short: as §2

[14] = test system: morningglory; experiment: Test B pre/postemergence morningglory; format: in vivo, Ipomoea hederacea
In short: as §2

[15] = test system: rape; experiment: Test B pre/postemergence rape; format: in vivo, Brassica napus
In short: as §2

[16] = test system: bedstraw; experiment: Test B pre/postemergence bedstraw; format: in vivo, Galium aparine
In short: as §2

[17] = Rate 62 g/ha, headed Pre-emergence (flood test species), scale 0 to 10 (0 no effect, 10 complete control)
[18] = Rate 125 g/ha, Pre-emergence, flood test species, scale 0 to 10 where 0 is no effect and 10 is complete control
[19] = Rate 250 g/ha, Pre-emergence, flood-test species, scale 0 to 10, 0 is no effect, 10 is complete control
[20] = Rate 500 g/ha, Pre-emergence, flood test species, scale 0 to 10 (0 no effect, 10 complete control)
[21] = Preemergence, Rate 62 g/ha, scale of 0 to 10 where 0 is no effect and 10 is complete control
[22] = Preemergence, Rate 250 g/ha, scale of 0 to 10 where 0 is no effect and 10 is complete control
[23] = Preemergence, Rate 500 g/ha, scale of 0 to 10 where 0 is no effect and 10 is complete control
[24] = Rate 62 g/ha, Postemergence, scale 0 to 10 (0 no effect, 10 complete control)
[25] = Rate 125 g/ha, Postemergence, scale of 0 to 10 where 0 is no effect and 10 is complete control
[26] = Rate 125 g/ha, Preemergence, scale of 0 to 10 where 0 is no effect and 10 is complete control
[27] = Rate 250 g/ha, Postemergence, scale of 0 to 10 where 0 is no effect and 10 is complete control
[28] = Rate 500 g/ha, Postemergence, scale 0 to 10, 0 no effect, 10 complete control

CC(C)N(C(=O)n1oc(=O)n(C2CCCC2)c1=O)c1ccc(F)cc1F [Compound 284]
Rice plant response rating [1, 17]: 0 | Rice plant response rating [1, 18]: 0 | Rice plant response rating [1, 19]: 0 | Rice plant response rating [1, 20]: 0 | Corn plant response rating [2, 21]: 0 | Corn plant response rating [2, 22]: 0 | Plant response rating, Corn [2, 23]: 0 | Corn plant response rating [2, 24]: 0 | Corn plant response rating [2, 25]: 0 | Corn plant response rating [2, 26]: 0 | Plant response rating, Corn [2, 27]: 0 | Corn plant response rating [2, 28]: 0 | Giant foxtail plant response rating [3, 21]: 9 | Giant foxtail plant response rating [3, 22]: 9 | Plant response rating, Giant foxtail [3, 23]: 10 | Giant foxtail plant response rating [3, 24]: 0 | Giant foxtail plant response rating [3, 25]: 2 | Giant foxtail plant response rating [3, 26]: 9 | Plant response rating, Giant foxtail [3, 27]: 3 | Nutsedge plant response rating [4, 21]: 0 | Nutsedge plant response rating [4, 22]: 0 | Plant response rating, Nutsedge [4, 23]: 0 | Nutsedge plant response rating [4, 24]: 0 | Nutsedge plant response rating [4, 25]: 0 | Nutsedge plant response rating [4, 26]: 0 | Plant response rating, Nutsedge [4, 27]: 0 | Redroot pigweed plant response rating [5, 21]: 5 | Redroot pigweed plant response rating [5, 22]: 7 | Plant response rating, Redroot pigweed [5, 23]: 8 | Redroot pigweed plant response rating [5, 24]: 3 | Redroot pigweed plant response rating [5, 25]: 4 | Redroot pigweed plant response rating [5, 26]: 6 | Plant response rating, Redroot pigweed [5, 27]: 6 | Soybean plant response rating [6, 21]: 0 | Soybean plant response rating [6, 22]: 0 | Plant response rating, Soybean [6, 23]: 3 | Soybean plant response rating [6, 24]: 4 | Soybean plant response rating [6, 25]: 4 | Soybean plant response rating [6, 26]: 0 | Plant response rating, Soybean [6, 27]: 4 | Blackgrass plant response rating [7, 21]: 0 | Blackgrass plant response rating [7, 22]: 8 | Plant response rating, Blackgrass [7, 23]: 10 | Blackgrass plant response rating [7, 24]: 3 | Blackgrass plant response rating [7, 25]: 5 | Blackgrass plant response rating [7, 26]: 4 | Plant response rating, Blackgrass [7, 27]: 7 | Blackgrass plant response rating [7, 28]: 8 | Sugarbeets plant response rating [8, 21]: 2 | Sugarbeets plant response rating [8, 22]: 6 | Plant response rating, Sugarbeets [8, 23]: 6 | Sugarbeets plant response rating [8, 24]: 1 | Sugarbeets plant response rating [8, 25]: 3 | Sugarbeets plant response rating [8, 26]: 5 | Plant response rating, Sugarbeets [8, 27]: 5 | Ducksalad plant response rating [9, 17]: 0 | Ducksalad plant response rating [9, 18]: 0 | Ducksalad plant response rating [9, 19]: 0 | Ducksalad plant response rating [9, 20]: 0 | Barnyardgrass plant response rating [10, 17]: 0 | Barnyardgrass plant response rating [10, 18]: 1 | Barnyardgrass plant response rating [10, 19]: 4 | Barnyardgrass plant response rating [10, 20]: 9 | B. signalgrass plant response rating [11, 21]: 5 | B. signalgrass plant response rating [11, 22]: 5 | Plant response rating, B. signalgrass [11, 23]: 8 | B. signalgrass plant response rating [11, 24]: 0 | B. signalgrass plant response rating [11, 25]: 0 | B. signalgrass plant response rating [11, 26]: 5 | Plant response rating, B. signalgrass [11, 27]: 0 | B. signalgrass plant response rating [11, 28]: 1 | S. Flatsedge plant response rating [12, 17]: 0 | S. Flatsedge plant response rating [12, 18]: 0 | S. Flatsedge plant response rating [12, 19]: 0 | S. Flatsedge plant response rating [12, 20]: 0 | Velvetleaf plant response rating [13, 21]: 0 | Velvetleaf plant response rating [13, 22]: 0 | Plant response rating, Velvetleaf [13, 23]: 7 | Velvetleaf plant response rating [13, 24]: 0 | Velvetleaf plant response rating [13, 25]: 0 | Velvetleaf plant response rating [13, 26]: 0 | Plant response rating, Velvetleaf [13, 27]: 2 | Morningglory plant response rating [14, 21]: 0 | Morningglory plant response rating [14, 22]: 1 | Plant response rating, Morningglory [14, 23]: 2 | Morningglory plant response rating [14, 24]: 7 | Morningglory plant response rating [14, 25]: 7 | Morningglory plant response rating [14, 26]: 1 | Plant response rating, Morningglory [14, 27]: 7 | Rape plant response rating [15, 21]: 2 | Rape plant response rating [15, 22]: 7 | Plant response rating, Rape [15, 23]: 7 | Rape plant response rating [15, 24]: 1 | Rape plant response rating [15, 25]: 3 | Rape plant response rating [15, 26]: 2 | Plant response rating, Rape [15, 27]: 4 | Bedstraw plant response rating [16, 21]: 0 | Bedstraw plant response rating [16, 22]: 8 | Plant response rating, Bedstraw [16, 23]: 8 | Bedstraw plant response rating [16, 24]: 2 | Bedstraw plant response rating [16, 25]: 5 | Bedstraw plant response rating [16, 26]: 8 | Plant response rating, Bedstraw [16, 27]: 6 | Bedstraw plant response rating [16, 28]: 9
